Test results published in US20150105252A1, “SUBSTITUTED PYRAZOLES AS HERBICIDES” (E I DU PONT DE NEMOURS AND COMPANY, priority 2013, published 2015).

Legend:
crabgrass, large = test: Test A preemergence; type: in vivo, Digitaria sanguinalis; conditions: preemergence
Summary of the method: (§1)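 Seeds were sown in a loam soil–sand blend and given a directed soil spray preemergence; postemergence plants at 2–10 cm, one- to two-leaf stage, were sprayed with compound in non-phytotoxic solvent with surfactant. After about 10 days in a greenhouse, injury was visually rated against untreated controls (0 = no effect, 100 = complete control).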

wheat = test: Test A preemergence; type: in vivo, Triticum aestivum; conditions: preemergence
Summary of the method: as §1

morningglory = test: Test A postemergence; type: in vivo, Ipomoea spp.; conditions: Postemergence
Summary of the method: as §1

ragweed [1] = test: Test C preemergence; type: in vivo, Ambrosia elation; conditions: preemergence
Summary of the method: (§2)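 Herbicidal effect is expressed as percent visual control (0–100) judged against untreated plants 13 to 15 days after treatment in the greenhouse. Preemergence pots contained seeds in a soil–sand blend; postemergence plants, 2–18 cm tall, grew in peat-based planting medium.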

soybean [2] = test: Test C preemergence; type: in vivo, Glycine max; conditions: preemergence
Summary of the method: as §2

barnyardgrass = test: Test C preemergence; type: in vivo, Echinochloa crus-galli; conditions: preemergence
Summary of the method: as §2

waterhemp = test: Test C preemergence; type: in vivo, Amaranthus rudis; conditions: preemergence
Summary of the method: as §2

velvetleaf = test: Test C preemergence; type: in vivo, Abutilon theophrasti; conditions: preemergence
Summary of the method: as §2

ryegrass, Italian = test: Test C postemergence; type: in vivo, Lolium multiflorum; conditions: postemergence
Summary of the method: as §2

corn = test: Test C postemergence; type: in vivo, Zea mays
Summary of the method: as §2

foxtail, giant = test: Test C postemergence; type: in vivo, Setaria faberii
Summary of the method: as §2

johnsongrass = test: Test C postemergence; type: in vivo, Sorghum halepense
Summary of the method: as §2

nutsedge, yellow = test: Test C postemergence; type: in vivo, Cyperus esculentus
Summary of the method: as §2

ragweed [3] = test: Test C postemergence; type: in vivo, Ambrosia elation; conditions: postemergence
Summary of the method: as §2

soybean [4] = test: Test C postemergence; type: in vivo, Glycine max; conditions: postemergence
Summary of the method: as §2

oilseed rape = test: Test C postemergence; type: in vivo, Brassica napus; conditions: postemergence
Summary of the method: as §2

[5] = 125 g ai/ha, visual injury approx. 10 days after treatment
[6] = 500 g ai/ha, visual injury after approx. 10 days, 0 to 100 scale (0 no effect, 100 complete control)
[7] = 31 g ai/ha, visual rating, scale 0 to 100 (0 no effect, 100 complete control), 13 to 15 days
[8] = 62 g ai/ha, scale 0 to 100 (0 no effect, 100 complete control), 13 to 15 days
[9] = 125 g ai/ha, 13 to 15 days, scale 0 to 100, 0 = no effect, 100 = complete control
[10] = 250 g ai/ha, scale 0 to 100, 0 is no effect, 100 is complete control
[11] = 250 g ai/ha, scale 0 to 100 (0 no effect, 100 complete control)
[12] = 125 g ai/ha, scale 0 to 100, 0 no effect, 100 complete control
[13] = Postemergence, 31 g ai/ha, visually evaluated after 13 to 15 days
[14] = postemergence, 62 g ai/ha, scale 0 to 100
[15] = postemergence, 250 g ai/ha, scale 0 to 100 (0 no effect, 100 complete control)
[16] = postemergence, 125 g ai/ha, scale 0 to 100, 0 no effect, 100 complete control

CCCc1cc(C(=O)NOCC)nn1Cc1ccnc(C(F)(F)F)c1 [Compound 185]
65: Soybean plant response rating (soybean [2]; [10]) | Velvetleaf plant response rating (velvetleaf; [8]) | Plant response rating, Corn (corn; [15])
30: Plant response rating, Ragweed (ragweed [3]; [11])
90: Wheat plant response rating (wheat; [6]) | Morningglory plant response rating (morningglory; 500 g ai/ha, 0 to 100 scale (0 no effect, 100 complete control))
10: Plant response rating, Foxtail, Giant (foxtail, giant; [16]) | Plant response rating, Nutsedge, Yellow (nutsedge, yellow; [15])
55: Barnyardgrass plant response rating (barnyardgrass; [7])
100: Crabgrass, Large plant response rating (0 to 100 scale) (crabgrass, large; [5]) | Crabgrass, Large plant response rating (crabgrass, large; [6]) | Ragweed plant response rating (ragweed [1]; [10]) | Barnyardgrass plant response rating (barnyardgrass; [10]) | Waterhemp plant response rating (waterhemp; [7]) | Waterhemp plant response rating (waterhemp; [8]) | Plant response rating, Waterhemp (waterhemp; [9]) | Waterhemp plant response rating (waterhemp; [10]) | Plant response rating, Velvetleaf (velvetleaf; [9])
40: Plant response rating, Ragweed (ragweed [3]; [12]) | Soybean plant response rating (soybean [4]; [12]) | Oilseed Rape plant response rating (oilseed rape; 62 g ai/ha, scale 0 to 100)
0: Plant response rating, Ryegrass, Italian (ryegrass, Italian; [11]) | Plant response rating, Ryegrass, Italian (ryegrass, Italian; [12]) | Plant response rating (scale of 0 to 100 where 0 is no effect and 100 is complete control), Johnsongrass (johnsongrass; [13]) | Johnsongrass plant response rating (johnsongrass; [14]) | Plant response rating, Johnsongrass (johnsongrass; [16]) | Plant response rating (scale of 0 to 100 where 0 is no effect and 100 is complete control), Nutsedge, Yellow (nutsedge, yellow; [13]) | Nutsedge, Yellow plant response rating (nutsedge, yellow; [14])
95: Plant response rating, Ragweed (ragweed [1]; [9])
25: Plant response rating, Soybean (soybean [2]; [9])
98: Plant response rating, Barnyardgrass (barnyardgrass; [9]) | Velvetleaf plant response rating (velvetleaf; [10])
20: Morningglory plant response rating (morningglory; 125 g ai/ha, 0 to 100 scale, 0 no effect, 100 complete control) | Velvetleaf plant response rating (velvetleaf; [7])
75: Ragweed plant response rating (ragweed [1]; [8]) | Barnyardgrass plant response rating (barnyardgrass; [8])
50: Plant response rating, Soybean (soybean [4]; [11]) | Plant response rating, Oilseed Rape (oilseed rape; [12])
70: Wheat plant response rating (0 to 100 scale) (wheat; [5]) | Plant response rating, Oilseed Rape (oilseed rape; [11])
5: Ragweed plant response rating (ragweed [1]; [7]) | Soybean plant response rating (soybean [2]; [7]) | Soybean plant response rating (soybean [2]; [8]) | Plant response rating (scale of 0 to 100 where 0 is no effect and 100 is complete control), Corn (corn; [13]) | Corn plant response rating (corn; [14]) | Plant response rating, Corn (corn; [16]) | Plant response rating (scale of 0 to 100 where 0 is no effect and 100 is complete control), Foxtail, Giant (foxtail, giant; [13]) | Foxtail, Giant plant response rating (foxtail, giant; [14]) | Plant response rating, Foxtail, Giant (foxtail, giant; [15]) | Plant response rating, Johnsongrass (johnsongrass; [15]) | Plant response rating, Nutsedge, Yellow (nutsedge, yellow; [16])
